Results taken from patent US11197836B2, “Topical vasoconstrictor preparations and methods for protecting cells during cancer chemotherapy and radiotherapy” (WISCONSIN ALUMNI RESEARCH FOUNDATION, priority 2005, dated 2021).
“Also recorded” adds a separate entry of the source. Structures can show the parent of a compound that is named as a salt. Where two headings read alike, the source gives them in different places. Values belong to the compound of their own block, whether it stands above or below them.

How the values were obtained:
coat density = conditions: ten-day old Sprague-Dawley rats
Experimental: On day 20 of life, coat density on the dorsal back of each animal was visually scored as a percentage of the normal coat density for an untreated 20 day old rat. At 30 μg/gm b.w.

[1] = blood plasma, following intravenous infusion or oral administration; cited from earlier work
rat skin = test: Penetration of topically applied dye into rat skin; type: in vivo; conditions: applied to rat skin in an alcohol:water solution
Source text: It is preferred for certain embodiments of the invention directed to skin applications to optimize ethanol, propylene glycol, and water percentages to enable sufficient delivery of epinephrine, phenylephrine, norepinephrine, or methoxamine to the skin vasculature, to achieve transient, vasculature constriction, and by so-doing, confer protection to the stem cells of the epidermis and hair follicle. The primary skin vasculature is located within the dermis, largely creating a vascular web surrounding the hair follicle bulbs (shown in FIG. 1). Topical drug delivery to this vasculature is primarily achieved by “transfolicular” delivery, i.e., topically-applied alcohol:water solutions travel within the hair shaft channels to the hair follicle bulb, and then diffuse through the stem cells that comprise the hair follicle bulb to access the dermal vasculature surrounding the bulb. For topical solutions to access dermal vasculature, a minimum percentage of alcohol in the topical delivery vehicle is preferred to enable: i) dissolution or softening of sebaceous oil present in human hair shaft channels, and ii) penetration of the oil-stratum corneum matrix.

cheek pouch oral mucosa = test: Blanch response of hamster cheek pouch oral mucosa, Example 15; type: in vivo, Syrian Golden hamster; conditions: 10 mM in 5:1:94 ethanol:HPMC:PBS, after 30 min
Experimental: Hamsters were anesthetized with sodium pentobarbital, the cheek pouch was everted with forceps, rinsed with water and blotted, and immobilized on a 2 cm diameter inert plastic disk using stainless steel clips (see panels in FIG. 11). […] Digital images were recorded.

[2] = test system: chemotherapy-induced alopecia; conditions: 950 mM topical four times in two hr, 10 day old rat pups, Cytoxan 30 μg/gm b.w. i.p.
[3] = test system: radiation-induced or Cytoxan-induced alopecia; conditions: neonate rat, day 20 of life
Source text: The severity of the alopecia was scored nine days later—on day 20 of life.

[4] = test system: radiation-induced oral mucositis; conditions: for Muscositis Severity Score: score 0-17, day 16
Experimental: In an assay based upon Alvarez eta/. […] Additional topical formulation was applied with Q-tip to uniformly cover the everted, interior surface of the cheek pouch. After 20 min, the vehicle-coated, immobilized cheek pouch was taped into position over a 1.5 cm diameter window bored through a 2.5 cm thick lead plate. The sleeping hamster was immobilized on a small shelf on the plate that enabled cheek pouch irradiation through the window.
After irradiation, the cheek pouch was rinsed with water, blotted and reverted. The severity of mucositis in the irradiated cheek pouch was scored 16 days later using the following criteria.

human skin [5] = conditions: for Skin Blanch Response: human arm skin; for blanching of the skin: human skin, over the 180 min observation period
[6] = test system: radiation-induced dermatitis of rat skin; conditions: for Radiation Dermatitis Score (% of Irradiated 4.5 cm^2 Area Free of Scab material): rat, 8.7 Gy γ, scored 13 days later
adrenergic receptor = conditions: cited from earlier work
[7] = test system: radiodermatitis of rat skin; test: Radiodermatitis prevention after 27 Gy 6 MeV electron beam irradiation of rat skin, Example 14; type: in vivo; conditions: 300 mM topical
Experimental: Adult rats ([…]) were clipped to remove the coat covering their dorsal backs. Aliquots (100 μl) of topical drug formulation containing 300 mM norepinephrine were applied once to the backs of the rats, and at set time points afterward, a rectangle (1.5 cm×3 cm) within the topical treatment field received a 27 Gy dose of 6 MeV electrons from a linear accelerator. Animals were anesthetized with 30 μg/gm b.w. sodium pentobarbital prior to irradiation. Following irradiation, rats were returned to cages, and 13 days later the severity of radiodermatitis within the irradiated rectangular field was visually scored and photographed. A “Radiodermatitis Severity Score” between 0 and 100 represents the percentage of the irradiated field that is covered by scab material on day 13 following irradiation.

dermal vasculature = test: Exclusion of systemic dye from rat skin (colorimeter), Example 18; type: in vivo; conditions: 300 mM in 50:30:20 vehicle, 30 min time point
Experimental: 400 μl of a black dye solution was injected into each test rat as an i.p. bolus at 10 min after topical treatment with either 300 mM norepinephrine or vehicle alone. Colorimeter measurements of skin color in patches were made and the progression was recorded from 0 through 30 min. The change in colorimeter units between the 0 min reading and readings at indicated time points are plotted in FIG. 15. Colorimeter measurements of skin color were made using a CR-400 colorimeter (Minolta Corp.).

[8] = Sustained solubility of norepinephrine tartrate in ethanol:PG:water mixtures, Example 7; type: physicochemical; conditions: 600 mM
Experimental: Solvent composed of ethanol:propylene glycol (PG):water in the percentages (vol:vol:vol)·specified in FIG. 3 was then added to each vial. Vials were heated as necessary to dissolve norepinephrine by touching vials to a boiling water bath for one second increments and then vortexing until clear. Sealed vials were left at room temperature for 24 hours, and at 4° C. for 24 hours. During the two 24 hour incubations, liquid in each vial was examined using a magnifying glass to identify the formation of any crystalline material. If crystals formed, norepinephrine was noted as “insoluble” at that solvent mixture.

human skin [9] = test: Human skin blanch 20 min after topical application, Example 6; type: in vivo; conditions: applied to unbroken human skin
Experimental: (§1) The approximate amount of heat required to dissolve the vasoconstrictor salt in each diluent is indicated. Once diluted, samples were sealed and held at room temperature (22° C.) for 24 hours and then at 4° C. for 24 hours. Skin blanch induced by the topical formulation was assessed by applying freshly made, clear formulation to human skin shortly after initial mixing. Drug solutions were monitored for the appearance of precipitated material over a 48 hour observation period.

[10] = Dissolution and 24 hr solution status of vasoconstrictor salts in ethanol:PG:water diluents, Example 6; type: physicochemical; conditions: at the concentrations required to induce an acceptable blanch response
Experimental: Aliquots of each vasoconstrictor salt were weighed into glass test tubes. The volume of liquid necessary to achieve the indicated final drug concentration was then added.
as §1

[11] = test system: radiation-induced oral mucositis; test: Radiation-induced oral mucositis in hamster cheek pouch, Example 16; conditions: hamster cheek pouch

Structure (SMILES): O=P1(N(CCCl)CCCl)NCCCO1 (stereo not drawn) [Cytoxan, cyclophosphamide]
coat on day 20 (coat density; 20 μg/gm b.w. and lower doses i.p.): full coats
coat on day 20 (coat density; 30 μg/gm b.w. and higher doses i.p.): nude
clearance half-life [1]: about one

Structure (SMILES): CCN(CC)c1ccc2nc3c4ccccc4c(=O)cc-3oc2c1 [Nile Red]
skin penetration (rat skin): penetrates both the stratum corneum and underlying epidermis

Structure (SMILES): CNC[C@H](O)c1ccc(O)c(O)c1 [epinephrine, epinephrine-HCl]
appearance of cheek pouch (blanch) (cheek pouch oral mucosa): white and translucent
coat protection on day 20 [2]: partial coat protection
Alopecia Score (% Normal Coat Density in Topical Treatment Area) ([3]; 20 mM, vehicle 50:25:25, Irradiation 7.5 Gy whole-body): 6%
Alopecia Score (% Normal Coat Density in Topical Treatment Area) ([3]; 100 mM, vehicle 50:25:25, Irradiation 7.5 Gy whole-body): 33%
Alopecia Score (% Normal Coat Density in Topical Treatment Area) ([3]; 500 mM, vehicle 50:25:25, Irradiation 7.5 Gy whole-body): 45%
Alopecia Score (% Normal Coat Density in Topical Treatment Area) ([3]; 1000 mM, vehicle 0:100:0, Irradiation 7.5 Gy whole-body): 95%
Alopecia Score (% Normal Coat Density in Topical Treatment Area) ([3]; 1000 mM, vehicle 25:30:45, Cytoxan 32 μ/gm b.w. i.p.): 40%
Alopecia Score (% Normal Coat Density in Topical Treatment Area) ([3]; 1000 mM, vehicle 25:30:45 ethanol:propylene glycol:water, alopecia-inducing agent None): 100%
Alopecia Score (% Normal Coat Density in Topical Treatment Area) ([3]; 1000 mM, vehicle 50:25:25, Irradiation 7.5 Gy whole-body): 94%
Muscositis Severity Score ([4]; 0.05 mM, vehicle 5:5:3:87 ethanol:propylene glycol:HPMC:PBS, irradiation 20 min, Experiment C): 7.5
Muscositis Severity Score ([4]; 0.10 mM, vehicle 5:5:3:87, irradiation 20 min, Experiment C): 5.0
Muscositis Severity Score ([4]; 0.20 mM, vehicle 5:5:3:87, irradiation 20 min, Experiment C): 3.0
Muscositis Severity Score ([4]; 0.40 mM, vehicle 5:5:3:87, irradiation 20 min, Experiment C): 0
Muscositis Severity Score ([4]; 13.5 mM epinephrine + 12.3 mM epinephrine, vehicle 0:5:3:92, irradiation 24 min, Experiment B): 11.7 ± 0.7
Muscositis Severity Score ([4]; 100.00 mM, vehicle 5:0:1:94, irradiation 24 min, Experiment A): 14.5 ± 2.4
Muscositis Severity Score ([4]; 500.00 mM, vehicle 5:0:1:94, irradiation 24 min, Experiment A): 9.0
lowest topical concentration with discernible radioprotection of a mucosal site ([4]; hamster cheek pouch): 50 µM
Skin Blanch Response (human skin [5]; 2 mM in 50:25:25 ethanol:propylene glycol:water, 45 min): 10%
Skin Blanch Response (human skin [5]; 2 mM in 50:25:25 ethanol:propylene glycol:water, 60 min): 40%
Skin Blanch Response (human skin [5]; 2 mM in 50:25:25 ethanol:propylene glycol:water, 150 min): 75%
Skin Blanch Response (human skin [5]; 10 mM in 50:25:25 ethanol:propylene glycol:water, 45 min): 40%
Skin Blanch Response (human skin [5]; 10 mM in 50:25:25 ethanol:propylene glycol:water, 60 min): 60%
Skin Blanch Response (human skin [5]; 10 mM in 50:25:25 ethanol:propylene glycol:water, 150 min): 90%
Skin Blanch Response (human skin [5]; 50 mM in 50:25:25 ethanol:propylene glycol:water, 45 min): 30%
Skin Blanch Response (human skin [5]; 50 mM in 50:25:25 ethanol:propylene glycol:water, 60 min): 50%
Skin Blanch Response (human skin [5]; 50 mM in 50:25:25 ethanol:propylene glycol:water, 150 min): 85%
Skin Blanch Response (human skin [5]; 0.1% (4.55 mM) in water, 45 min): 0%
Skin Blanch Response (human skin [5]; 0.1% (4.55 mM) in water, 60 min): 0%
Skin Blanch Response (human skin [5]; 0.1% (4.55 mM) in water, 150 min): 0%
Skin Blanch Response (human skin [5]; 0.1% (4.55 mM) in water, 180 min): 0%
blanching of the skin (human skin [5]; 0.1% aqueous solution): no detectable blanching
Skin Blanch Response (human skin [5]; 100 mM in 50:25:25 ethanol:propylene glycol:water, 45 min): 85%
Skin Blanch Response (human skin [5]; 100 mM in 50:25:25 ethanol:propylene glycol:water, 60 min): 90%
Skin Blanch Response (human skin [5]; 100 mM in 50:25:25 ethanol:propylene glycol:water, 150 min): 90%
Skin Blanch Response (human skin [5]; 1000 mM in 50:25:25 ethanol:propylene glycol:water, 45 min): 85%
Skin Blanch Response (human skin [5]; 1000 mM in 50:25:25 ethanol:propylene glycol:water, 60 min): 90%
Skin Blanch Response (human skin [5]; 1000 mM in 50:25:25 ethanol:propylene glycol:water, 150 min): 95%
Radiation Dermatitis Score (% of Irradiated 4.5 cm^2 Area Free of Scab material) ([6]; 20 mM, vehicle 50:30:20, four topical applications): 32%
Radiation Dermatitis Score (% of Irradiated 4.5 cm^2 Area Free of Scab material) ([6]; 300 mM, vehicle 25:30:45, four topical applications): 95%
Radiation Dermatitis Score (% of Irradiated 4.5 cm^2 Area Free of Scab material) ([6]; 1000 mM, vehicle 50:30:20, four topical applications): 100%
concentration applied to skin required to confer protection against radiation dermatitis ([6]; rat skin): > 20 mM

solubility (no crystals over 24 hr room temperature and 24 hr 4° C.) ([8]; 55:20:25 ethanol:PG:water): not soluble
solubility (no crystals over 24 hr room temperature and 24 hr 4° C.) ([8]; around 50:30:20 ethanol:PG:water): areas of solubility
solubility (no crystals over 24 hr room temperature and 24 hr 4° C.) ([8]; around 60:10:30 ethanol:PG:water): areas of solubility
Structure (SMILES): NC[C@H](O)c1ccc(O)c(O)c1 [norepinephrine]
agonism of the β2 receptor (adrenergic receptor): not an agonist of the β2 receptor
binding affinity (potency) for the α1 adrenergic receptor (adrenergic receptor): slightly better than for epinephrine
protection against Grade 2 dermatitis [7]: complete protection
reduction of delivery of systemic, blood-borne dye to treated skin (dermal vasculature): 39%

Structure (SMILES): CNC[C@H](O)c1cccc(O)c1 [phenylephrine, phenylephrine-HCl]
appearance of cheek pouch (blanch) (cheek pouch oral mucosa): white and translucent
Muscositis Severity Score ([4]; 12.3 mM, vehicle 0:5:3:92, irradiation 24 min, Experiment B): 5.0 ± 0.1
Skin Blanch Response (human skin [5]; 30 mM in 60:30:10 vehicle, 180 min): 0%
Skin Blanch Response (human skin [5]; 150 mM in 60:30:10 vehicle, 180 min): 35%
Skin Blanch Response (human skin [5]; 0.25% (12.3 mM) in water, 180 min): 0%
blanching of the skin (human skin [5]; 0.25% aqueous solution): no detectable blanching
Skin Blanch Response (human skin [5]; 300 mM in 60:30:10 vehicle, 180 min): 50%
Skin Blanch Response (human skin [5]; 1000 mM in 60:30:10 vehicle, 180 min): 60%
Skin Blanch Response (human skin [5]; 2500 mM in 60:30:10 vehicle, 180 min): 70%
potency to induce skin blanch (human skin [9]): lacks the potency to adequately induce skin blanch
solubility in topical vehicles [10]: not stably soluble
protection against γ radiation-induced mucositis ([11]; 10 mM topical): completely protective; also recorded: completely preventing
mucosal pathology ([11]; large excess doses combined with 24 min of irradiation (40 Gy)): severe mucosal pathology
mucosal pathology ([11]; large excess doses without irradiation): no discernible mucosal pathology
